Experiments:
[1] = Urinary excretions of AB-PC after administration of AB-PC rectal suppository (human); type: in vivo; conditions: AB-PC 125 mg (potency); for Urinary excretions of AB-PC (%) (0-6 hr.): added compound 10%, Witepsol H-15, % of dose
Protocol: The thus-obtained suppositories were administered to healthy adult male humans from the anus, and the urinary excretions of AB-PC were determined.

[2] = Urinary excretions of β-lactam antibiotics after rectal suppository (rabbit); type: in vivo; conditions: Compound (I) 5%, Witepsol H-15
Protocol: The absorption into the circulation through the rectum of the rectal suppositories thus prepared was determined by measuring urinary excretion of the pharmacologically-active substance.
Thus, Sarcina lutea and Bacillus subtilis were used as assay organisms for penicillins and cephalosporins, respectively, and the assays were performed by the paper disk method (cultivation at 37° C. for from 15 to 20 hours).

[3] = Compound (I) 10%, Witepsol H-15, Table 3

c1ccc2nc3ccccc3cc2c1 [Acridine, reference compound]
Urinary excretions of AB-PC (%) (0-6 hr.) [1]: 2.1%

O=C(O)CCCCCCCCCC(=O)O [Compound 1-Na, 1,9-Nonamethylendicarboxylic acid]
Urinary excretions (%) 0-2 hr. ([2]; Cephalothin 125 mg (potency)): 20.5% | Urinary excretions (%) 2-4 hr. ([2]; Cephalothin 125 mg (potency)): 3.0% | Urinary excretions (%) 4-6 hr. ([2]; Cephalothin 125 mg (potency)): 0.2% | Urinary excretions (%) Total (0-6 hr.) ([2]; Cephalothin 125 mg (potency)): 23.7% | Urinary excretions of AB-PC (%) (0-6 hr.) [1]: 15.2%

O=C(O)Cc1ccccc1 [Phenylacetic acid Na, Phenylacetic acid, reference compound]
Urinary excretions of AB-PC (%) (0-6 hr.) [1]: 5.8%

CCCCCCCCCCNC(=O)/C=C\C(=O)O [Compound 13-Na, N--(n-Decyl)maleamic acid]
Urinary excretions (%) 0-2 hr. ([2]; FK-749 125 mg (potency)): 39.1% | Urinary excretions (%) 2-4 hr. ([2]; FK-749 125 mg (potency)): 18.0% | Urinary excretions (%) 4-6 hr. ([2]; FK-749 125 mg (potency)): 2.1% | Urinary excretions (%) Total (0-6 hr.) ([2]; FK-749 125 mg (potency)): 59.2%

CCCCCCCC(=O)N(C)c1ccc(C(=O)O)cc1 [Compound 18-Na, N--(n-Caprylyl)-4-methylaminobenzoic acid]
Urinary excretions (%) 0-2 hr. ([2]; 6059-S 125 mg (potency)): 42.2% | Urinary excretions (%) 2-4 hr. ([2]; 6059-S 125 mg (potency)): 18.8% | Urinary excretions (%) 4-6 hr. ([2]; 6059-S 125 mg (potency)): 3.6% | Urinary excretions (%) Total (0-6 hr.) ([2]; 6059-S 125 mg (potency)): 64.6%

O=C(O)c1ccccc1 [Benzoic acid Na, Benzoic acid, reference compound]
Urinary excretions of AB-PC (%) (0-6 hr.) [1]: 5.6%

O=C(O)COc1cccc2ccccc12 [Compound 8-Na, α-Napthoxacetic acid]
Urinary excretions of AB-PC (%) (0-6 hr.) [1]: 15.1%

c1ccc2occc2c1 [Benzofurane, reference compound]
Urinary excretions of AB-PC (%) (0-6 hr.) [1]: 1.9%

CCCCCCCCCCCCCC(=O)N[C@H](C(=O)O)[C@@H](C)O [Compound 26-Na, N--Myristoyl-L-threonine]
Urinary excretions (%) 0-2 hr. ([2]; Cefsulodin 125 mg (potency)): 41.1% | Urinary excretions (%) 2-4 hr. ([2]; Cefsulodin 125 mg (potency)): 8.2% | Urinary excretions (%) 4-6 hr. ([2]; Cefsulodin 125 mg (potency)): 0.5% | Urinary excretions (%) Total (0-6 hr.) ([2]; Cefsulodin 125 mg (potency)): 49.8% | Urinary excretions (%) 0-2 hr. ([2]; Sulbenicillin 125 mg (potency)): 40.0% | Urinary excretions (%) 2-4 hr. ([2]; Sulbenicillin 125 mg (potency)): 5.1% | Urinary excretions (%) 4-6 hr. ([2]; Sulbenicillin 125 mg (potency)): 1.0% | Urinary excretions (%) Total (0-6 hr.) ([2]; Sulbenicillin 125 mg (potency)): 46.2% | Urinary excretions (%) 0-2 (hr.) [1, 3]: 26.1% | Urinary excretions (%) 2-4 (hr.) [1, 3]: 3.0% | Urinary excretions (%) 4-6 (hr.) [1, 3]: 0.9% | Urinary excretions (%) Total (0-6 hr.) [1, 3]: 30.0%

CCCCCCCC(=O)OCC [Ethyl caprylate, reference compound]
Urinary excretions of AB-PC (%) (0-6 hr.) [1]: 2.9%

CCCCCC(=O)N[C@@H](Cc1c[nH]c2ccccc12)C(=O)O [Compound 22-Na, N--Caproyl-L-tryptophan]
Urinary excretions (%) 0-2 hr. ([2]; Cefazolin 125 mg (potency)): 40.5% | Urinary excretions (%) 2-4 hr. ([2]; Cefazolin 125 mg (potency)): 16.0% | Urinary excretions (%) 4-6 hr. ([2]; Cefazolin 125 mg (potency)): 2.0% | Urinary excretions (%) Total (0-6 hr.) ([2]; Cefazolin 125 mg (potency)): 58.5% | Urinary excretions (%) 0-2 hr. ([2]; Cephalothin 125 mg (potency)): 19.5% | Urinary excretions (%) 2-4 hr. ([2]; Cephalothin 125 mg (potency)): 2.5% | Urinary excretions (%) 4-6 hr. ([2]; Cephalothin 125 mg (potency)): 0.2% | Urinary excretions (%) Total (0-6 hr.) ([2]; Cephalothin 125 mg (potency)): 22.2%

CCCCCCCCCC(=O)OCC [Ethyl caprate, reference compound]
Urinary excretions of AB-PC (%) (0-6 hr.) [1]: 3.0%

CCCCCCCCCCCC(=O)N(C)CC(=O)O [Compound 10-Na, N--Lauroylsarcosine]
Urinary excretions (%) 0-2 hr. ([2]; Sulbenicillin 125 mg (potency)): 33.5% | Urinary excretions (%) 2-4 hr. ([2]; Sulbenicillin 125 mg (potency)): 10.0% | Urinary excretions (%) 4-6 hr. ([2]; Sulbenicillin 125 mg (potency)): 1.0% | Urinary excretions (%) Total (0-6 hr.) ([2]; Sulbenicillin 125 mg (potency)): 43.5%

CCCCc1ccc(C(=O)O)cc1 [Compound 4-Na, p-Butylbenzoic acid]
Urinary excretions (%) 0-2 hr. ([2]; Cefsulodin 125 mg (potency)): 30.5% | Urinary excretions (%) 2-4 hr. ([2]; Cefsulodin 125 mg (potency)): 15.0% | Urinary excretions (%) 4-6 hr. ([2]; Cefsulodin 125 mg (potency)): 1.1% | Urinary excretions (%) Total (0-6 hr.) ([2]; Cefsulodin 125 mg (potency)): 45.6% | Urinary excretions of AB-PC (%) (0-6 hr.) [1]: 28.6%

CCCCCCCCNC(=O)c1ccccc1C(=O)O [Compound 14-Na, 2-Carboxy-N--(n-octyl)benzamide]
Urinary excretions (%) 0-2 hr. ([2]; FK-749 125 mg (potency)): 41.2% | Urinary excretions (%) 2-4 hr. ([2]; FK-749 125 mg (potency)): 19.0% | Urinary excretions (%) 4-6 hr. ([2]; FK-749 125 mg (potency)): 1.8% | Urinary excretions (%) Total (0-6 hr.) ([2]; FK-749 125 mg (potency)): 62.0%

O=C(O)c1ccccc1O [Salicylic acid Na, Salicylic acid, reference compound]
Urinary excretions of AB-PC (%) (0-6 hr.) [1]: 9.6%

O=C(O)CCCCCC(=O)O [Pimelic acid Na, Pimelic acid, reference compound]
Urinary excretions of AB-PC (%) (0-6 hr.) [1]: 6.0%

Source: patent US4442090A, “Absorption-promoting compounds, compositions thereof with pharmaceuticals and/or bases for rectal administration and method of use” (Kyoto Yakuhin Kogyo Kabushiki Kaisha, priority 1980, dated 1984)
